Experimental data published in ChEMBL document CHEMBL5214925, “Dual-target inhibitors of indoleamine 2, 3 dioxygenase 1 (Ido1): A promising direction in cancer immunotherapy” (Eur J Med Chem, 2022).

Tests used:
[1] = biological target: T1, Indoleamine 2,3-dioxygenase 1 (Homo sapiens, UniProt P14902); test: Inhibition of IDO1 in human A-172 cells; type: cell-based
Target sequence in this assay (P14902 whole entry): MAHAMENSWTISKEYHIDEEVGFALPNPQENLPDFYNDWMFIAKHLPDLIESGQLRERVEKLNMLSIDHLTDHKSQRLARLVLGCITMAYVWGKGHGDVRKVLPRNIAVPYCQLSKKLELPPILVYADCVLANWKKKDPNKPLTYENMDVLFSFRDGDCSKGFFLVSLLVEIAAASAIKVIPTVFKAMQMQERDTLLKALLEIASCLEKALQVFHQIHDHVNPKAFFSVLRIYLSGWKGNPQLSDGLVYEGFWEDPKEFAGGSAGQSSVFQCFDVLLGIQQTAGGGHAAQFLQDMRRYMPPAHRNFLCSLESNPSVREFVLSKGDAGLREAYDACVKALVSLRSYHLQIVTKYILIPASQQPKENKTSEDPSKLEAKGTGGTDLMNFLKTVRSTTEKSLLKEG

A549 = test: Cytotoxicity against human A549 cells by CCK-8 method; type: functional, cell-based
HeLa = test: Cytotoxicity against human HeLa cells; type: functional; conditions: read-out: LC50 (the source's name)
HT-29 = test: Cytotoxicity against human HT-29 cells by CCK-8 method; type: functional, cell-based
CT26 [2] = test: Antitumor activity against mouse CT26 cells allografted in nude mouse assessed as reduction in tumor volume relative to control; type: functional; design: scale not given: the % may be the effect or the level left
[3] = biological target: T1, Indoleamine 2,3-dioxygenase 1; test: Inhibition of human recombinant IDO1 in human HeLa cells incubated for 48 hrs; type: cell-based
Target sequence in this assay (P14902 whole entry): as above

CT26 [4] = test: Antitumor activity against mouse CT26 cells allografted in immunocompetent mouse assessed as tumor growth inhibition relative to control; type: functional
CT26 [5] = test: Cytotoxicity against […] cells by CCK-8 method; type: functional, cell-based; conditions: Mus musculus
HCT-116 [6] = test: Cytotoxicity against human HCT-116 cells by CCK-8 method; type: functional, cell-based
HCT-116 [7] = test: Antiproliferative activity against human HCT-116 cells; type: functional, cell-based
CT26 [8] = test: Antiproliferative activity against mouse CT26 cells; type: functional, cell-based
[9] = biological target: T1, Indoleamine 2,3-dioxygenase 1; test: Inhibition of IDO1 (unknown origin)
Target sequence in this assay (P14902 whole entry): as above

[10] = Antiproliferative activity against mouse Lewis lung carcinoma cell line; type: functional, cell-based
[11] = Antitumor activity against Lewis Lung carcinoma cells in mouse expressing IDO1 assessed as tumor growth inhibition relative to control; type: functional
[12] = Antiproliferative activity against melanoma cells (unknown origin) subcutaneously xenografted in mouse model assessed as inhibition of cell growth rate at 100 mg/kg relative to control; type: functional; conditions: sc
[13] = Antiproliferative activity against melanoma cells (unknown origin) subcutaneously xenografted in mouse model assessed as inhibition of cell growth rate at 50 mg/kg relative to control; type: functional; conditions: sc
[14] = Cytotoxicity against human colon epithelial cells incubated for 24 hrs by CCK-8 assay; type: functional, cell-based; conditions: Epithelial cell
HCT-116 [15] = test: Cytotoxicity against human HCT-116 incubated for 24 hrs by CCK-8 assay; type: functional, cell-based; conditions: HCT-116, 24 h
[16] = Antitumor activity against Lewis lung carcinoma cell in C57BL/6 mouse assessed as tumor growth inhibition at 60 mg/kg relative to control; type: functional; conditions: C57BL/6, Lewis lung carcinoma, read-out: TGI
[17] = biological target: T1, Indoleamine 2,3-dioxygenase 1; test: Inhibition of IDO1 in human BT-549 cells; type: cell-based; conditions: pooled result: one value given for 2 cell lines, strains, targets or settings
Target sequence in this assay (P14902 whole entry): as above

[18] = Antitumor activity against mouse HEPA1-6 cells allografted in mouse model over expressing TDO assessed as tumor growth inhibition relative to control; type: functional
[19] = Antitumor activity against mouse HEPA1-6 cells allografted in mouse model over expressing IDO1 assessed as tumor growth inhibition relative to control; type: functional
[20] = Antitumor activity against mouse LL2 cells allografted in mouse model over expressing IDO1 assessed as tumor growth inhibition relative to control; type: functional, Lewis lung carcinoma
[21] = biological target: Tryptophan 2,3-dioxygenase (Homo sapiens, UniProt P48775); test: Inhibition of recombinant C-terminal His tagged TDO (unknown origin) expressed in Escherichia coli
Chain of Tryptophan 2,3-dioxygenase (P48775 whole entry): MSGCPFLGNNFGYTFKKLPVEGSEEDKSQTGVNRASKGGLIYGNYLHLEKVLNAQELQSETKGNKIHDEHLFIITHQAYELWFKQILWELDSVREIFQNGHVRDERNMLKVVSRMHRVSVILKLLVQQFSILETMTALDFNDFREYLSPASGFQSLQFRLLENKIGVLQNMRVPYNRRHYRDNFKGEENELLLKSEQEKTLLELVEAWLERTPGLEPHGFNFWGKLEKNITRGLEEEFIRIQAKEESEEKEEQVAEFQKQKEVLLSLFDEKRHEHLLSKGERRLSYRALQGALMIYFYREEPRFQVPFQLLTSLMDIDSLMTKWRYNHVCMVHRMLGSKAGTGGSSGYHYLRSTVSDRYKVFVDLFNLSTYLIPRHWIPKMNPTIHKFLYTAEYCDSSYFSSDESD

[22] = biological target: T1, Indoleamine 2,3-dioxygenase 1; test: Inhibition of recombinant N-terminal His tagged IDO1 (unknown origin) expressed in Escherichia coli incubated for 1.5 hrs by FULOstar OMEGA plate reader method
Target sequence in this assay (P14902 whole entry): as the sequence (P14902 whole entry) above

Histone deacetylase 1 = Histone deacetylase 1 (Homo sapiens, UniProt Q13547); test: Inhibition of HDAC1 (unknown origin) using […] as substrate preincubated for 15 mins followed by substrate addition measured after 60 mins
Chain of Histone deacetylase 1 (Q13547 whole entry): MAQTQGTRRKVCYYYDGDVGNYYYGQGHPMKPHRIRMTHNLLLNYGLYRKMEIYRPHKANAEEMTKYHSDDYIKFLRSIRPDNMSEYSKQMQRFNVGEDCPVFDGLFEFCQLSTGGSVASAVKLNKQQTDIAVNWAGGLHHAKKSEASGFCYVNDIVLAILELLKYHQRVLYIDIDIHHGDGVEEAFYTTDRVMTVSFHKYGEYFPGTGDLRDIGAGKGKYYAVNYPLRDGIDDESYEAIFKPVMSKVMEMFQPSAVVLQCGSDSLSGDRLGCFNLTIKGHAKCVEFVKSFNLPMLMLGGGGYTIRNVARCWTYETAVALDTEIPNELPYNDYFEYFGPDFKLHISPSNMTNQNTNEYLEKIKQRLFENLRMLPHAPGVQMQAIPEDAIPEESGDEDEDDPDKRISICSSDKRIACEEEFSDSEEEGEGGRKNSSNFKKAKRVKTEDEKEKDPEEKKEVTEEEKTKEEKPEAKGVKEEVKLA

[23] = biological target: T1, Indoleamine 2,3-dioxygenase 1; test: Inhibition of IDO1 (unknown origin) using L-tryptophan as substrate incubated for 10 mins
Target sequence in this assay (P14902 whole entry): as the sequence (P14902 whole entry) above

[24] = Inhibition of rat liver TrxR incubated for 1 hr; type: tissue-based
[25] = biological target: T1, Indoleamine 2,3-dioxygenase 1; test: Inhibition of human N-terminal His tagged recombinant IDO1 (5 to 403 residues) expressed in Escherichia coli BL21 (DE3)
[26] = biological target: T1, Indoleamine 2,3-dioxygenase 1; test: Inhibition of IDO1 in human HeLa cells; type: cell-based
[27] = Inhibition of TrxR in human HCT-116 cell lysate; type: subcellular
CT26 [28] = test: Antitumor activity against mouse CT26 cells allografted in mouse assessed as tumor growth inhibition at 50 mg/kg; type: functional; conditions: read-out: TGI
[29] = Volume of distribution in Sprague-Dawley rat plasma; type: ADME, cell-free
[30] = Clearance in Sprague-Dawley rat plasma; type: ADME, cell-free
[31] = biological target: T1, Indoleamine 2,3-dioxygenase 1; test: Inhibition of IDO1 (unknown origin) using L-tryptophan as substrate at 10 uM incubated for 10 mins relative to control
Target sequence in this assay (P14902 whole entry, looked up): as the sequence (P14902 whole entry) above

CC1=C(CC(=O)c2sccc2Br)C(=O)c2ccccc2C1=O
IC50 [1]: 37.7 µM

O=C(NCCNc1nonc1/C(=N/O)Nc1ccc(F)c(Br)c1)c1cccc(N(CCCl)CCCl)c1
IC50 (A549): 17 µM | CC50 (HeLa): 39 µM | IC50 (HT-29): 19 µM | Activity (CT26 [2]): 28.6% | EC50 [3]: 0.27 µM | TGI (CT26 [4]): 58.2% | IC50 (CT26 [5]): 25 µM | IC50 (HCT-116 [6]): 25 µM

NC(CC(=O)O)Cc1c[nH]c2ccc(N(CCCl)CCCl)cc12 (stereo unspecified)
IC50 (HCT-116 [7]): 23.7 µM | IC50 (CT26 [8]): 23.7 µM | IC50 [9]: 14 µM | IC50 [10]: 23.7 µM | TGI [11]: 63.8%

COc1cc(Nc2cc(NC(C)=O)cc3[nH]c(C(=O)O)cc23)cc(OC)c1OC
inhibition in vivo at 100 mg/kg [12]: 44.7% | inhibition in vivo at 50 mg/kg [13]: 43.2%

COc1cc(/C=C/C(=O)N2CCC=CC2=O)cc(OC)c1OC [PIPLARTINE]
IC50 [14]: 46.9 µM | IC50 (HCT-116 [15]): 6.38 µM

NS(=O)(=O)NCCNc1nonc1/C(=N/O)Nc1ccc(F)c(Br)c1 [EPACADOSTAT]
TGI (CT26 [4]): 47.5% | inhibition in vivo at 60 mg/kg [16]: 68%

Cc1ccc(C(=O)CC(=O)c2ccccc2OC(C)C)c(O)c1
IC50 [17]: 10.8 µM

NC(CC(=O)O)Cc1c[nH]c2cc(N(CCCl)CCCl)ccc12 (stereo unspecified)
IC50 (HCT-116 [7]): 63.9 µM | IC50 (CT26 [8]): 63.9 µM | IC50 [9]: 227 µM | IC50 [10]: 63.9 µM | TGI [11]: 73.5%

O=C1c2cc(F)ccc2C(=O)c2c1nnn2-c1ccc(F)c(Cl)c1
TGI [18]: 80% | TGI [19]: 80% | TGI [20]: 62.5%

COc1ccccc1C(=O)CC(=O)c1ccc(C)cc1O
IC50 [17]: 20.6 µM

Cn1cc(-c2ccc(NC(N)=O)cc2)c2ccc(F)cc21
IC50 [21]: 0.078 µM | IC50 [22]: 0.049 µM

Cc1ccc2c(c1CCC(=O)NCCCCCC(=O)CNc1ccccc1N)C(=O)C(=O)C(C(C)C)=C2
IC50 (Histone deacetylase 1): 0.46 µM | IC50 [23]: 0.73 µM

O=C1C=CCCN1C(=O)/C=C/c1ccccc1-c1c[nH]cn1
IC50 [24]: 7.89 µM | IC50 [25]: 0.084 µM | EC50 [26]: 1.41 µM | IC50 [27]: 4.22 µM | IC50 [14]: 42 µM | IC50 (HCT-116 [15]): 0.55 µM

O[C@@H](c1cn2cncc2cc1Cl)C1CCCCC1
IC50 [21]: 0.029 µM | IC50 [22]: 0.0096 µM

OCCOCc1cn(CCNc2nonc2/C(=N/O)Nc2ccc(F)c(Br)c2)nn1
inhibition in vivo at 50 mg/kg (CT26 [28]): 69.7% | Vd [29]: 0.88 L/kg | clearance [30]: 27.5 mL/min/kg

CC(C)=CCCc1c(C)ccc2c1C(=O)C(=O)C(C(C)C)=C2
inhibition [31]: 85%
